Values of other authors in paper PMC4368888, “Preclinical to Clinical Translation of CNS Transporter Occupancy of TD-9855, a Novel Norepinephrine and Serotonin Reuptake Inhibitor” (International Journal of Neuropsychopharmacology, 2015).

Experiments:
SERT and NET = conditions: in vitro; ref Wu et al., 2008; Tsuruda et al., 2010; cited from earlier work
SERT = SERT (Homo sapiens, UniProt P31645); conditions: approved dose (100mg) for fibromyalgia; ref Nogami et al., 2013; cited from earlier work
Chain of SERT (P31645 whole entry): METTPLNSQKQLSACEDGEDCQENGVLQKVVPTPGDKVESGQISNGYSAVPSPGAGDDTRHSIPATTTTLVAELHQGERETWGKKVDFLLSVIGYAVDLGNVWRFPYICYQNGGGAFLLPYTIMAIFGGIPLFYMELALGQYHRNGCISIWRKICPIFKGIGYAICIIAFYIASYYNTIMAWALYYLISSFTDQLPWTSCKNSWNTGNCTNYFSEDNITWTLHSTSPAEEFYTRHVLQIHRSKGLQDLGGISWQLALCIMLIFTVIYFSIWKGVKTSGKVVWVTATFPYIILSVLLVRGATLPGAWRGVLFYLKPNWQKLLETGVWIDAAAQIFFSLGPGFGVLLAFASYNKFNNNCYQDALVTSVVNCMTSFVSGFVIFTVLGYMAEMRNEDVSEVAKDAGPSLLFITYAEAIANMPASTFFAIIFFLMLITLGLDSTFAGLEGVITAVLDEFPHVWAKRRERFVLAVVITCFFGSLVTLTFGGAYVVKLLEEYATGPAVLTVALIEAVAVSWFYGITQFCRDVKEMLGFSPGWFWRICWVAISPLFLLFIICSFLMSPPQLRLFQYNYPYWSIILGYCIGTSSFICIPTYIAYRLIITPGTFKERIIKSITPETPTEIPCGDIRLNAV

| Structure (SMILES) | functional selectivity for NE (SERT and NET) [fold] | occupancy of SERT (SERT) |
| --- | --- | --- |
| CNCC[C@@H](Oc1ccccc1C)c1ccccc1 [atomoxetine] | ≥ 20 | – |
| CCN(CC)C(=O)C1(c2ccccc2)CC1CN (centres unmarked) [milnacipran] | – | ~ 40% |
